Experiment [1] has as its system PKA activity. Description: AKAR single-cell live imaging in HEK-293 cells. It is filed as cell-based. Particulars: for AKAR3 response in single cell imaging: HEK-293, 10 μM epinephrine, 50 μM ritodrine, IBMX alone. The method, then:
Cell Culture and Imaging. HEK-293 cells were plated onto sterilized glass coverslips in 35 mm dishes and grown to ˜50% confluency in DMEM (10% FBS at 37° C. with 5% CO2). Cells were transfected with calcium phosphate and grown for 12-24 hours before imaging. After washing once with Hanks' balanced salt solution (HBSS), cells were maintained in buffer in the dark at 20-25° C. Isoproterenol (ISO; Sigma), forskolin (Fsk; Calbiochem), H89 (Sigma) were added as indicated. Cells were imaged on a Zeiss Axiovert 200M microscope with a 40×/1.3NA oil-immersion objective lens and cooled CCD camera as described in (21). Briefly, dual emission ratio imaging used a 420DF20 excitation filter, a 450DRLP dichroic mirror, and two emission filters (475DF40 for cyan and 535DF25 for yellow). The ratios of yellow-to-cyan (for AKAR) or cyan-to-yellow (for ICUE) emissions were then calculated at different time points and normalized by dividing all ratios by the emission ratio before stimulation, setting basal emission ratio as 1.
One of the important advantages of genetically encoded reporters of the invention is that they can be targeted to subcellular locations via various targeting motifs. However, in some cases, subcellular targeting may sacrifice the response amplitude of a reporter. To determine whether the improved dynamic range of AKAR3 leads to sensitive detection of subcellular PKA activities, AKAR3 was targeted to two cellular compartments.

Experiment [2] relates to cAMP. Description: ICUE3 live cell high-throughput cAMP plate reader assay (cyan/yellow emission ratio). It is filed as cell-based. How it is done:
(§1) Live Cell Plate Reading. HEK-293 cells were transfected with AKAR3 or ICUE3 using calcium phosphate at 40% confluency and grown for 40 hours. Cells were then trypsinized and plated in a Costar 3603 96-well plate (Corning) at a density of 150,000 cells per well. After incubation for another 24 hours, cells were washed once with HBSS and left in 150 μl of HBSS at 20-25° C. Fluorescence reading was taken on a FLUOstar OPTIMA fluorescence microplate reader (BMG Labtechnologies Inc.) using a 420DF20 excitation filter and two emission filters (470DF40 for cyan and 535DF25 for yellow). A baseline was established in three cycles, each consisting of a full plate reading of yellow intensity, followed by a reading of cyan intensity.
(§2) Each cycle lasted between 64 and 92 seconds. Cells were then treated with ISO, Fsk, H89, Propranolol (Pro; Sigma), or 3-isobutyl-1-methylxanthine (IBMX; Sigma) as indicated. Readings were taken in additional cycles. FRET change was calculated as the percent increase of emission ratios (yellow-to-cyan for AKAR and cyan-to-yellow for ICUE) over baseline for each well during a given cycle. Several parameters were calculated to assess the efficiency of the assay, including Z′ factor, coefficient of variation, and signal to noise (S/N) ratio (22).
To follow the activity of the signaling pathway and to assay related drug targets in parallel, we developed a live cell-based high-throughput assay for cAMP, a second messenger that is generated via activation of Gs-coupled GPCRs and exerts its effects by activating PKA and other effectors. Similar improvement approaches were first applied to create a reporter that more than doubled the response of previous “Indicator for cAMP Using Epac” (ICUE), which generates a decrease in FRET upon binding of cAMP (FIG. 5). […] Possible sources of the variation and reduced signal are transfection efficiency and expression variability.

Experiment [3] concerns PKA activity. Nature of the experiment: AKAR3 live cell 96-well plate reader assay (yellow/cyan emission ratio). It is filed as cell-based. Particulars: for increase in yellow-to-cyan emission ratio of AKAR3: HEK-203 (sic) cells expressing AKAR3, 96-well plate, n=3. The method, then:
as §1, §2
AKAR2 (FIG. 4). This reporter, AKAR3 (FIG. 1b), was tested in a 96-well plate format. […] As negative controls, addition of buffer of 2% DMSO generated minimal changes in emission ratios. This 96-well plate assay was sensitive and reproducible, with a signal to noise ratio of 30.3, a Z′ factor of 0.84, and a coefficient of variation (CV) of 1.8% for the Fsk-stimulated response.
To provide specific readout of compartmentalized PKA activities, we introduced a C-terminal nuclear export signal (NES) to AKAR3 . In the plate reader assay using AKAR3 -NES (FIG. 1d), cytosolic PKA activity was recorded without contamination of nuclear activity, which has slower kinetics due to diffusional translocation of the catalytic subunit from cytosol to nucleus. […] Thus, sensor targeting provides increased temporal and spatial resolution and can be used to reveal how individual signaling microdomains, such as kinase-containing signaling complexes, are affected by drugs or other perturbations, adding another level of capacity to the non-image-based high-throughput assays of the invention.

The test system of experiment [4] is PKA activity. Description: AKAR3 high-throughput screening of Johns Hopkins Clinical Compound Library. It is filed as cell-based. Particulars: for agonist screen: AKAR response to compound alone: 10 μM, hit = larger than 6 times the standard deviation above negative control. How it is done: Live Cell High-Throughput Screening. […] After incubation for 24 hours, cells were washed once with HBSS and left in 190 μl of HBSS at 20-25° C. Fluorescence readings were taken as described above, with each cycle lasting 90 seconds. Following baseline acquisition, cells in each experimental well were treated with a compound from the Johns Hopkins Clinical Compound Library to a final concentration of 10 μM. Control cells were treated with 10 μL of 10% fetal bovine serum (FBS) in a solution of phosphate buffered saline (PBS) at pH 7.4, which is the solution used to dissolve library compounds.
Ten final cycles were then performed.
FRET responses were calculated as described above. […] Agonist hits were defined as compounds eliciting responses larger than six times the standard deviation above the baseline. Antagonist hits were defined as compounds which decreased the ISO stimulated response by 50% or by six times the standard deviation.
In a primary screening, 160 compounds from the Johns Hopkins Clinical Compound Library were added to AKAR3-expressing HEK-293 cells in individual wells of 96-well plates to a final concentration of 10 μM after a base line reading. Time courses were recorded to monitor any fluorescence changes upon drug addition and to identify hits which activate PKA as potential agonists.
Potential agonists were identified by selecting compounds which stimulated emission ratio changes larger than 6 times the standard deviation above the negative control (FIG. 3a ).

The test system of experiment [5] is cAMP. Description: ICUE single cell imaging, ISO stimulation in the presence of IBMX. It is filed as cell-based. Particulars: FIG. 3e, read-out: inhibition of ISO-stimulated ICUE response. How it is done:
FIG. 3. High-throughput screening. FIG. 3A, normalized emission ratio (yellow/cyan) from cells expressing AKAR3 treated with individual library compounds, compared to the negative control in which only buffer was added and the positive control in which ISO (250 nM) was added (agonist screen). Individual bars along the X axis represent individual library compounds. The asterisks indicate responses of ritrodrine, ISO, and epinephrine. FIG. 3B, normalized emission ratio (yellow/cyan) from cells expressing AKAR3 first treated with individual library compounds for about 15 minutes, then stimulated by ISO (250 nM) (antagonist screen). The positive control in which only ISO was added and the negative control in which only buffer was added are shown as labeled. Individual bars along the X axis represent individual library compounds. The asterisks indicate responses from epinephrine and propranolol treated cells in response to ISO. FIG. 3C, representative time courses of emission ratio (yellow/cyan) change of cells expressing AKAR3 treated with 10 μM epinephrine followed by 50 μM FSK in single-cell imaging experiments. […]
Cell Culture and Imaging. […] The ratios of yellow-to-cyan (for AKAR) or cyan-to-yellow (for ICUE) emissions were then calculated at different time points and normalized by dividing all ratios by the emission ratio before stimulation, setting basal emission ratio as 1. […]

Experiment [6] addresses catalytic subunit of PKA (Homo sapiens, UniProt P17612). Nature of the experiment: In vitro kinase assay with purified AKAR3 protein. Particulars: n=2. It is filed as biochemical. How it is done: FIG. 7. Further characterization of AKAR3. Representative time courses of plasma membrane-targeted AKAR3 (FIG. 7a ) and nuclear-targeted AKAR3 (FIG. 7b ) in HEK-293 cells stimulated with 1 μM ISO and 50 μM FSK, respectively. FIG. 7c , AKAR3-expressing HEK-293 cells were treated with 200 nM phorbol dibutyrate (PDBu), a protein kinase C activator, followed by the addition of 1 μM isoproterenol, then 50 μM forskolin. FIG. 7d , representative time courses of the emission ratio change of AKAR3 in the presence (closed squares) and absence (open circles) of the specific PKA inhibitor, PKI. FIG. 7e , emission spectra of the purified AKAR3 before (squares) and after (diamonds) phosphorylation by PKA (excitation 434 nm). The curve using triangle symbols depicts the spectrum of the reporter after digestion with trypsin to quench the energy transfer and quantify the FRET. FIG. 7f , a representative phosphorylation time course for purified AKAR3 protein in the presence of PKA catalytic subunit and 1 mM ATP.
Lastly, in vitro kinase assays were carried out using purified AKAR3 protein from mammalian cell lysates.

These results are taken from US8080235B2, “Protein kinase A reporters useful in high throughput assays” (The Johns Hopkins University, priority 2005, dated 2011).

Where two headings read alike, the source gives them in different places.

With `C=C[C@@]1(C)CC(=O)[C@]2(O)[C@@]3(C)[C@@H](O)CCC(C)(C)[C@@H]3[C@H](O)[C@H](OC(C)=O)[C@@]2(C)O1` [Fsk, forskolin], the “average nuclear response of nuclear-targeted AKAR3” value in experiment [1] (HEK-293, 50 μM FSK, n=3, slower kinetics, FIG. 7b) is 38.6%±8.45%. The Emax was determined as 43.3% in experiment [2] (stable cell line, read-out: maximum response of ICUE assay) and 24.1% in experiment [2] (transient transfection, Fsk in the presence of 100 μM IBMX, FIG. 2c, read-out: maximum response of ICUE3). Moreover, the “increase in yellow-to-cyan emission ratio of AKAR3” value in experiment [3] is 25.7%±0.7%.

In the case of `O=S(=O)(NCCNC/C=C/c1ccc(Br)cc1)c1cccc2cnccc12` [H89], the “effect on AKAR3 response (PKA specificity)” value in experiment [1] (PKI co-expression or H89 pretreatment) is listed as “abolished”. The “effect on Fsk-stimulated ICUE3 response” value in experiment [2] (FIG. 2c) is reported as “increased the ICUE3 response”. In addition, in experiment [3] (FIG. 2d), the “effect on Fsk-stimulated AKAR3 response” value was “diminished”.

Consider `CC(C)Cn1c(=O)n(C)c(=O)c2[nH]cnc21` [IBMX, 3-isobutyl-1-methylxanthine], for which the “effect on ritodrine-stimulated AKAR3 response” value in experiment [1] (100 μM IBMX after 50 μM ritodrine, FIG. 3d) was “enhanced”. Moreover, the “AKAR3 response in single cell imaging” value in experiment [1] is on record as “did not generate any AKAR responses”. For the same compound, in experiment [2] (FIG. 2), the “effect of supplementing on ICUE3 responses” value was “sustained responses and increased their amplitude”. For the same compound, the “effect of supplementing on AKAR3 responses” value in experiment [3] (FIG. 2) was “sustained responses and increased their amplitude”.

In the case of `CC(C)NCC(O)c1ccc(O)c(O)c1` (stereo not shown) [ISO, isoproterenol], the “average response of plasma membrane-targeted AKAR3” value in experiment [1] (HEK-293, 1 μM ISO, n=3, FIG. 7a) is 34.3%±5.4%. In addition, in experiment [1] (HEK-293 cells expressing AKAR3.2, 1 μM ISO, FIG. 6), the “maximum response (emission ratio elevation) of AKAR3.2” value is “approximately 65%”. For the same compound, the “agonist screen: AKAR response to compound alone” value (“agonist screen: AKAR response” below) in experiment [4] is “stimulated AKAR responses on their own”. For the same compound, the “emission ratio change with AKAR3-NES compared to the AKAR3 assay” value in experiment [3] (AKAR3-NES, plate reader, FIG. 1d) is listed as “larger increase in emission ratio followed by a more rapid decrease”. Also, the “increase in yellow-to-cyan emission ratio of AKAR3” value in experiment [3] was 22.1%±0.7%.

Consider `C=CC1=C(C)/C(=C/c2[nH]c(Cc3[nH]c(/C=C4\NC(=O)C(C)=C4C=C)c(C)c3CCC(=O)O)c(CCC(=O)O)c2C)NC1=O` [bilirubin], for which the inhibition at 1 µM in experiment [5] (1 μM bilirubin) is 40%. Also, in experiment [5] (10 μM bilirubin), the inhibition at 10 µM was over 60%.

Turning to `CNC[C@H](O)c1ccc(O)c(O)c1` [epinephrine], the “AKAR3 response in single cell imaging” value in experiment [1] was “stimulates cAMP production and PKA activation”. Further, the “antagonist screen: effect on ISO-stimulated AKAR response” value in experiment [4] (10 μM compound about 15 min, then 0.25 μM ISO) is “decreased the cell response to subsequent stimulation by ISO”. The “agonist screen: AKAR response” value in experiment [4] is recorded as “stimulated AKAR responses on their own”.

Regarding `CC(NCCc1ccc(O)cc1)C(O)c1ccc(O)cc1` (stereo not shown) [ritodrine], the “AKAR3 response in single cell imaging” value in experiment [1] is “moderate and gradual response”. Besides, in experiment [4], the “agonist screen: AKAR response” value is “stimulated AKAR responses on their own”.

With “AKAR3.2: PKA reporter fusion protein SEQ ID NO:4: cerulean fluorescent protein, FHA1, SEQ ID NO:3, circularly permuted YFP variant”, the “dynamic range of the reporter” value in experiment [1] was 55-65%.

Regarding “AKAR3: PKA reporter fusion protein SEQ ID NO:1: ECFP 1-227, FHA1, PKA substrate linker SEQ ID NO:3, circularly permuted Venus”, the “increase in emission ratio (yellow over cyan) of the reporter” value in experiment [1] is on record as “about 40%”. Moreover, the “emission ratio increase after addition of ATP” value in experiment [6] (purified AKAR3, PKA catalytic subunit, 1 mM ATP, approximately 40 minutes) was 29.1%±1.11%. Further, in experiment [6] (quantified using trypsin), the “FRET efficiency after phosphorylation” value was 47.2%±7.67% and the “FRET efficiency before phosphorylation” value is 38.8%±7.36%.

In general, inhibition refers to the percentage by which the read-out fell short of the control.
